Reference: paper PMC5431432, “Low-basicity 5-HT7 Receptor Agonists Synthesized Using the van Leusen Multicomponent Protocol” (Scientific Reports, 2017)

Target: human serotonin 5-HT6R (Homo sapiens, UniProt P50406)
Sequence (P50406 whole entry): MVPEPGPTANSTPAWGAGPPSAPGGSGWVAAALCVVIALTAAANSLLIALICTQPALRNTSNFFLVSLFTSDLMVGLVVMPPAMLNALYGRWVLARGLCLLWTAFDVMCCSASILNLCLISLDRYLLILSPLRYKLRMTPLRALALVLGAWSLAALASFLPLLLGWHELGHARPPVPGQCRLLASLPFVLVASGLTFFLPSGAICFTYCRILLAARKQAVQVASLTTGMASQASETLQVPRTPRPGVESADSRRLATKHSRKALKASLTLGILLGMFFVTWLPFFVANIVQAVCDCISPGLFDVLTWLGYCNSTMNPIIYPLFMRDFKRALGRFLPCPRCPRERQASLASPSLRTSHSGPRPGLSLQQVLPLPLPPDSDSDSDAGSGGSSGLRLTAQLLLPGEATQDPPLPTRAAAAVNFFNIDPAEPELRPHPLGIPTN
Test: Radioligand binding, [3H]-LSD displacement
Conditions: Fig. 2; read-out: pKi 5-HT6 (converted)
Compound `COc1ccc(-c2cncn2C)cc1` [2b] has a Ki of 5.37 µM.
For `CCn1cncc1-c1c[nH]c2ccc(C#N)cc12` [1p], the Ki was > 10 µM.
With `COc1ccc(-c2c([N+](=O)[O-])ncn2C)cc1` [2a] the Ki was > 10 µM.
With `CCn1cncc1-c1cc2ccccc2[nH]1` [3b] the Ki was > 10 µM.
With `CCCn1cncc1-c1c[nH]c2ccc(OC)cc12` [1f] the Ki was > 10 µM.
In the case of `COc1ccccc1-c1cncn1C` [2d], the Ki is reported as > 10 µM.
`CCn1cncc1-c1ccc2[nH]ccc2c1` [3c] gave a Ki of 3.55 µM.
Compound `CCCCn1cncc1-c1c[nH]c2ccc(OC)cc12` [1g] has a Ki of 5.89 µM.
For `CCn1cncc1-c1c(C)[nH]c2ccc(OC)cc12` [1v], the Ki was > 10 µM.
With `CCn1cncc1-c1ccc2cc[nH]c2c1` [3d] the Ki was 4.57 µM.

Target: human 5-HT7 receptor (Homo sapiens, UniProt P34969)
Sequence (P34969 1-432 limits assumed): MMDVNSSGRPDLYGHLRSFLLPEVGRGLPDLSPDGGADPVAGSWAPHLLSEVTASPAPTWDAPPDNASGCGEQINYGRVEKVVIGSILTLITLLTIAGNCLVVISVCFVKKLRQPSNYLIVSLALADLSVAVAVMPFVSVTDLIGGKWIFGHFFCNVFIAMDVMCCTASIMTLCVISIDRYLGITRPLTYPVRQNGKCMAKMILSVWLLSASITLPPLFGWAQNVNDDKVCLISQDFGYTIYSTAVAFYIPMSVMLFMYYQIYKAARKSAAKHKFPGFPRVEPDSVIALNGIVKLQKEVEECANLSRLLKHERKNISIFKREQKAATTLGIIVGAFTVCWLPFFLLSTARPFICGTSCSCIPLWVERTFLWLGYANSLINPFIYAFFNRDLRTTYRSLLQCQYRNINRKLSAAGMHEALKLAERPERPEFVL
Test: Functional assay, cAMP production (TR-FRET) in HEK293 cells overexpressing 5-HT7R
Type: cell-based
Conditions: not given
With `CCn1cncc1-c1c[nH]c2ccc(Br)cc12` [1n] the “function at the human 5-HT7 receptor” value was “full agonists”.
In the case of `CCn1cncc1-c1c[nH]c2ccc(Cl)cc12` [1m], the “function at the human 5-HT7 receptor” value is reported as “full agonists”.
For `CCn1cncc1-c1c[nH]c2ccc(C)cc12` [1q], the “function at the human 5-HT7 receptor” value was “full agonists”.

Same assay, conditions: hydrochloride salts
`CCn1cncc1-c1c[nH]c2ccc(Br)cc12` [1n] gave an EC50 of 0.154 µM.
Work on `CCn1cncc1-c1c[nH]c2ccc(Cl)cc12` [1m] yielded an EC50 of 0.149 µM.
Work on `CCn1cncc1-c1c[nH]c2ccc(C)cc12` [1q] yielded an EC50 of 0.045 µM.

Tested on: not given
Test: not given
Conditions: not given
With `COc1ccc(-c2c([N+](=O)[O-])ncn2C)cc1` [2a] the melting point was 171 °C.

Target: T1, human serotonin 5-HT2A receptor (Homo sapiens, UniProt P28223)
T1 construct: host or cells: CHO-K1
T1 sequence (P28223 whole entry): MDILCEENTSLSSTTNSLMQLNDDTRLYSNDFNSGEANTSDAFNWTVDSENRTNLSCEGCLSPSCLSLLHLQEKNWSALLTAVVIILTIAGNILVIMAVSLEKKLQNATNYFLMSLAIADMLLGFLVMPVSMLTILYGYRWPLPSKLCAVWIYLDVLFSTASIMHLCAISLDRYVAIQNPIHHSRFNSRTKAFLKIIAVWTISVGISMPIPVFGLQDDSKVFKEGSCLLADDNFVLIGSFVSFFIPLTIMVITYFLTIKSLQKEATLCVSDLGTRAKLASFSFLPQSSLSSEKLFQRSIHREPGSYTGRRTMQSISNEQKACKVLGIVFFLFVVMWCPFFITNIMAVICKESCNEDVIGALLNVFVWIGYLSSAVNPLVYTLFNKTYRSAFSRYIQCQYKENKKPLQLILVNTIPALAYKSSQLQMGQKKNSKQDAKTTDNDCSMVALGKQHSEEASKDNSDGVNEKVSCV
Test: Radioligand binding, [3H]-ketanserin displacement
Conditions: Fig. 2; read-out: pKi 5-HT2A (converted)
With `COc1ccc(-c2cncn2C)cc1` [2b] the Ki was > 10 µM.
With `CCn1cncc1-c1c[nH]c2ccc(C#N)cc12` [1p] the Ki was > 10 µM.
For `COc1ccc(-c2c([N+](=O)[O-])ncn2C)cc1` [2a], the Ki was > 10 µM.
In the case of `CCn1cncc1-c1cc2ccccc2[nH]1` [3b], the Ki is reported as > 10 µM.
In the case of `CCCn1cncc1-c1c[nH]c2ccc(OC)cc12` [1f], the Ki is reported as 4.27 µM.
With `COc1ccccc1-c1cncn1C` [2d] the Ki was > 10 µM.
With `CCn1cncc1-c1ccc2[nH]ccc2c1` [3c] the Ki was > 10 µM.
Compound `CCCCn1cncc1-c1c[nH]c2ccc(OC)cc12` [1g] has a Ki of 6.17 µM.
For `CCn1cncc1-c1c(C)[nH]c2ccc(OC)cc12` [1v], the Ki was > 10 µM.
In the case of `CCn1cncc1-c1ccc2cc[nH]c2c1` [3d], the Ki is reported as > 10 µM.
In the case of `CCn1cncc1-c1c[nH]c2ccc(OCc3ccccc3)cc12` [1y], the Ki is reported as > 10 µM.

Target: human dopamine D2LR (Homo sapiens, UniProt P14416)
Sequence (P14416 whole entry): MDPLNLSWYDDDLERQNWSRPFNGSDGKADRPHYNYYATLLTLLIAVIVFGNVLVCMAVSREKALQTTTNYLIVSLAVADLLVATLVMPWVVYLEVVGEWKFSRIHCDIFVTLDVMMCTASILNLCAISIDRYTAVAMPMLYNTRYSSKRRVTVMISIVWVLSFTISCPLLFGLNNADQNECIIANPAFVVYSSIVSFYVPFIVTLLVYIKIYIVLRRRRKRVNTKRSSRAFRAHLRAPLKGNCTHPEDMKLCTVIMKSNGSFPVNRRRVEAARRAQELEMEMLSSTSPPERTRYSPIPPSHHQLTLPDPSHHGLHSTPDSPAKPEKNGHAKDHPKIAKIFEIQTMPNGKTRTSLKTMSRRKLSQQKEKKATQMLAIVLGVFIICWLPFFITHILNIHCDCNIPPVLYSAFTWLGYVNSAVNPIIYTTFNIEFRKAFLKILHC
Test: Radioligand binding, [3H]-raclopride displacement
Conditions: not given
With `COc1ccc2[nH]cc(CCN)c2c1` [5-methoxytryptamine, reference compound] the Ki was > 10 µM.

Same assay, conditions: Fig. 2; read-out: pKi D2 (converted)
With `COc1ccc(-c2cncn2C)cc1` [2b] the Ki was > 10 µM.
For `CCn1cncc1-c1c[nH]c2ccc(C#N)cc12` [1p], the Ki was > 10 µM.
With `COc1ccc(-c2c([N+](=O)[O-])ncn2C)cc1` [2a] the Ki was > 10 µM.
In the case of `CCn1cncc1-c1cc2ccccc2[nH]1` [3b], the Ki is reported as > 10 µM.
For `CCCn1cncc1-c1c[nH]c2ccc(OC)cc12` [1f], the Ki was > 10 µM.
In the case of `COc1ccccc1-c1cncn1C` [2d], the Ki is reported as > 10 µM.
In the case of `CCn1cncc1-c1ccc2[nH]ccc2c1` [3c], the Ki is reported as > 10 µM.
With `CCCCn1cncc1-c1c[nH]c2ccc(OC)cc12` [1g] the Ki was > 10 µM.
In the case of `CCn1cncc1-c1c(C)[nH]c2ccc(OC)cc12` [1v], the Ki is reported as > 10 µM.
With `CCn1cncc1-c1ccc2cc[nH]c2c1` [3d] the Ki was > 10 µM.
Compound `CCn1cncc1-c1c[nH]c2ccc(OCc3ccccc3)cc12` [1y] has a Ki of 4.47 µM.

Target: T2, human serotonin 5-HT1AR (Homo sapiens, UniProt P08908)
T2 sequence (P08908 1-422): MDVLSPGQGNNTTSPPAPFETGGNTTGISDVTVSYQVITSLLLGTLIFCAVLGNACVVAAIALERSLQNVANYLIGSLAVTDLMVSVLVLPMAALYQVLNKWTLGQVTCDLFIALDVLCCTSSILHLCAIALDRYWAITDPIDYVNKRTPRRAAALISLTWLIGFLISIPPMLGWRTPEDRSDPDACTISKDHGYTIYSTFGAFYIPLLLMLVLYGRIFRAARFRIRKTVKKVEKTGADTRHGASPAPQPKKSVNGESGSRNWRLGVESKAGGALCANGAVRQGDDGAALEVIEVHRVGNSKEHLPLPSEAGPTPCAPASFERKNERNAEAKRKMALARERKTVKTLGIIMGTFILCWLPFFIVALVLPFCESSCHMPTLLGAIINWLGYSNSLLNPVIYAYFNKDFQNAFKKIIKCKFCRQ
Test: Radioligand binding, [3H]-8-OH-DPAT displacement
Conditions: not given
With `COc1ccc(-c2c([N+](=O)[O-])ncn2C)cc1` [2a] the “binding to 5-HT1AR in words” value was “did not bind”.

Same assay, conditions: Fig. 2; read-out: pKi 5-HT1A (converted)
For `COc1ccc(-c2cncn2C)cc1` [2b], the Ki was > 10 µM.
With `CCn1cncc1-c1c[nH]c2ccc(C#N)cc12` [1p] the Ki was > 10 µM.
In the case of `COc1ccc(-c2c([N+](=O)[O-])ncn2C)cc1` [2a], the Ki is reported as > 10 µM.
In the case of `CCn1cncc1-c1cc2ccccc2[nH]1` [3b], the Ki is reported as > 10 µM.
With `CCCn1cncc1-c1c[nH]c2ccc(OC)cc12` [1f] the Ki was > 10 µM.
In the case of `COc1ccccc1-c1cncn1C` [2d], the Ki is reported as > 10 µM.
With `CCn1cncc1-c1ccc2[nH]ccc2c1` [3c] the Ki was > 10 µM.
`CCCCn1cncc1-c1c[nH]c2ccc(OC)cc12` [1g] gave a Ki of 0.661 µM.
For `CCn1cncc1-c1c(C)[nH]c2ccc(OC)cc12` [1v], the Ki was > 10 µM.
With `CCn1cncc1-c1ccc2cc[nH]c2c1` [3d] the Ki was > 10 µM.
With `CCn1cncc1-c1c[nH]c2ccc(OCc3ccccc3)cc12` [1y] the Ki was > 10 µM.

Target: human serotonin 5-HT7bR (Homo sapiens, UniProt P34969)
Sequence (P34969 1-432 limits assumed): as the sequence (P34969 1-432 limits assumed) above
Test: Radioligand binding, [3H]-5-CT displacement
Conditions: not given
With `COc1ccc(-c2cncn2C)cc1` [2b] the “binding to 5-HT7R in words” value was “completely inactive”.
With `COc1ccc(-c2c([N+](=O)[O-])ncn2C)cc1` [2a] the “binding to 5-HT7R in words” value was “did not bind”.

Same assay, conditions: Fig. 2; read-out: pKi 5-HT7 (converted)
In the case of `COc1ccc(-c2cncn2C)cc1` [2b], the Ki is reported as > 10 µM.
Work on `CCn1cncc1-c1c[nH]c2ccc(C#N)cc12` [1p] yielded a Ki of 2.51 µM.
For `COc1ccc(-c2c([N+](=O)[O-])ncn2C)cc1` [2a], the Ki was > 10 µM.
In the case of `CCn1cncc1-c1cc2ccccc2[nH]1` [3b], the Ki is reported as > 10 µM.
For `CCCn1cncc1-c1c[nH]c2ccc(OC)cc12` [1f], the Ki was 0.0646 µM.
`COc1ccccc1-c1cncn1C` [2d] gave a Ki of 2.45 µM.
With `CCn1cncc1-c1ccc2[nH]ccc2c1` [3c] the Ki was 5.25 µM.
Work on `CCCCn1cncc1-c1c[nH]c2ccc(OC)cc12` [1g] yielded a Ki of 0.324 µM.
With `CCn1cncc1-c1c(C)[nH]c2ccc(OC)cc12` [1v] the Ki was > 10 µM.
With `CCn1cncc1-c1ccc2cc[nH]c2c1` [3d] the Ki was 2.63 µM.
In the case of `CCn1cncc1-c1c[nH]c2ccc(OCc3ccccc3)cc12` [1y], the Ki is reported as 3.72 µM.

Same assay, conditions: read-out: K i (5-HT7R)
`CCn1cncc1-c1c[nH]c2ccc(Br)cc12` [1n] showed a Ki of 0.02 µM.
Work on `CCn1cncc1-c1c[nH]c2ccc(Cl)cc12` [1m] yielded a Ki of 0.042 µM.
Work on `CCn1cncc1-c1c[nH]c2ccc(C)cc12` [1q] yielded a Ki of 0.044 µM.

Same assay, conditions: read-out: Ki 5-HT7
`CCn1cncc1-c1c[nH]c2ccc(C(N)=O)cc12` [1za, 3-(1-Ethyl-1H-imidazol-5-yl)-1H-indole-5-carboxamide] showed a Ki of 0.005 µM.
For `CCn1cncc1-c1c[nH]c2ccc(F)cc12` [1l], the Ki was 0.302 µM.
